This note sets out measurements from PubChem BioAssay (NCI).

Among the test systems are NCI-H460 lung; UACC-257 melanoma; HCT-116 colon; CAKI-1 renal; NCI-H23 lung; SK-MEL-5 melanoma; MCF7 breast; MOLT-4 leukemia; SK-OV-3 ovarian; U251 CNS.
Common to all, as to assay: NCI-60 cell line screen, 48 h

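48-hour exposure; five concentrations; linearly interpolated endpoints. GI50: concentration for 50% inhibition of growth. At the TGI there is no net growth.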 Where only a bound is given, the exact number is not on record here.

For the molecule `CC[C@H](C)C(=O)O[C@H]1CCC=C2C=C[C@H](C)C(CCC3C[C@@H](O)CC(=O)O3)[C@H]21` (stereo partly drawn), the GI50 was 4.9 µM in the assay on NCI-H460 lung; over 100 µM in the assay on UACC-257 melanoma; 2.99 µM in the assay with HCT-116 colon; 1.76 µM in the assay on CAKI-1 renal; 3.5 µM in the assay with NCI-H23 lung; 3.78 µM in the assay on SK-MEL-5 melanoma. In addition, the GI50 in the assay on MCF7 breast was 39.5 µM; in the assay on U251 CNS, 1.82 µM. Also, the TGI with NCI-H460 lung is over 100 µM; in the assay on UACC-257 melanoma, over 100 µM; in the assay on HCT-116 colon, 62.1 µM; in the assay on CAKI-1 renal it was 4.96 µM; in the assay on NCI-H23 lung it was over 100 µM; in the assay with SK-MEL-5 melanoma, 71.4 µM. Also, the TGI in the assay with MCF7 breast, with MOLT-4 leukemia, with SK-OV-3 ovarian and with U251 CNS was over 100 µM throughout.
With `NC(=O)Oc1cc(OC(N)=O)cc(N(CCCl)CCCl)c1`, the GI50 with NCI-H460 lung is 0.748 µM; with UACC-257 melanoma, 12.1 µM; in the assay on HCT-116 colon, 7.77 µM; in the assay with CAKI-1 renal, 2.97 µM; in the assay on NCI-H23 lung, 6.12 µM; in the assay with SK-MEL-5 melanoma, 6.93 µM. Also, the GI50 was 1.09 µM in the assay on MCF7 breast, 2.18 µM in the assay on MOLT-4 leukemia, 13.1 µM in the assay on SK-OV-3 ovarian and 2.24 µM in the assay on U251 CNS. Also, the TGI is 26.9 µM in the assay with NCI-H460 lung; 53.6 µM in the assay with UACC-257 melanoma; over 100 µM in the assay with HCT-116 colon; 80.4 µM with CAKI-1 renal; 63 µM with NCI-H23 lung; 52.5 µM in the assay with SK-MEL-5 melanoma. The TGI with MCF7 breast is 47.4 µM; in the assay on MOLT-4 leukemia, over 100 µM; in the assay on SK-OV-3 ovarian, over 100 µM; with U251 CNS, 54.9 µM.
Regarding `O=C1/C(=C/C(Cl)=C/c2ccccc2)SC(=S)N1CCc1ccc(O)cc1`, the GI50 in the assay on NCI-H460 lung is 2.08 µM; with UACC-257 melanoma, 1.39 µM; with HCT-116 colon it was 1.01 µM; in the assay with CAKI-1 renal, 1.52 µM; in the assay with NCI-H23 lung, 2.42 µM; with SK-MEL-5 melanoma it was 1.77 µM. Also, the GI50 in the assay on MCF7 breast was 1.85 µM; in the assay on MOLT-4 leukemia it was 2.2 µM; in the assay on SK-OV-3 ovarian, 5.53 µM; with U251 CNS it was 1.23 µM. In addition, the TGI in the assay with NCI-H460 lung worked out at 4.72 µM; with UACC-257 melanoma it was 3.61 µM; in the assay with HCT-116 colon, 3.55 µM; in the assay with CAKI-1 renal, 3.78 µM; with NCI-H23 lung, 7.85 µM; in the assay on SK-MEL-5 melanoma it was 3.31 µM. In addition, the TGI is 16.9 µM with MCF7 breast, over 100 µM with MOLT-4 leukemia, over 100 µM in the assay on SK-OV-3 ovarian and 2.66 µM in the assay with U251 CNS.
Regarding `CC(C)(O)[C@H]1[C@@H]2OC(=O)[C@H]1[C@]1(O)C[C@H]3OC34C(=O)O[C@H]2[C@@]41C` (stereo partly drawn) (tested in a mixture with another compound), the TGI with NCI-H460 lung, in the assay on UACC-257 melanoma, with HCT-116 colon, with CAKI-1 renal, in the assay with NCI-H23 lung and in the assay on SK-MEL-5 melanoma was over 100 µM in each case. Further, the TGI in the assay with MCF7 breast, with MOLT-4 leukemia, in the assay with SK-OV-3 ovarian and with U251 CNS was over 100 µM each time.
Regarding `Cc1ccc2sc3c(NCCCNCCO)nc4ccccc4c3c(=O)c2c1`, the GI50 in the assay on NCI-H460 lung was 1.7 µM; with UACC-257 melanoma it was 1.87 µM; with HCT-116 colon, 1.41 µM; in the assay with CAKI-1 renal, 1.43 µM; with NCI-H23 lung, 1.74 µM; with SK-MEL-5 melanoma, 1.78 µM. The GI50 is 1.61 µM with MCF7 breast, 1.81 µM in the assay with MOLT-4 leukemia, 1.45 µM with SK-OV-3 ovarian and 1.6 µM in the assay with U251 CNS. The TGI with NCI-H460 lung is 3.24 µM; in the assay on UACC-257 melanoma, 3.76 µM; with HCT-116 colon it was 2.73 µM; in the assay on CAKI-1 renal it was 2.82 µM; in the assay on NCI-H23 lung, 3.35 µM; in the assay with SK-MEL-5 melanoma, 3.25 µM. In addition, the TGI worked out at 3.17 µM with MCF7 breast, 3.55 µM in the assay on MOLT-4 leukemia, 3.02 µM in the assay on SK-OV-3 ovarian and 3.18 µM with U251 CNS.
For `COC(=O)Nc1nc2ccc(Oc3ccc(NC(=O)Nc4cccc(Cl)c4)cc3)cc2[nH]1`, the GI50 in the assay with NCI-H460 lung is 0.802 µM; with UACC-257 melanoma, 1.7 µM; with HCT-116 colon, 1.09 µM; in the assay with CAKI-1 renal, 1.74 µM; in the assay on NCI-H23 lung, 2.24 µM; with SK-MEL-5 melanoma, 0.492 µM. The GI50 in the assay on MCF7 breast is 0.307 µM; in the assay with MOLT-4 leukemia it was 2.35 µM; in the assay on SK-OV-3 ovarian, 1.03 µM; in the assay with U251 CNS it was 1.25 µM. For the same molecule, the TGI in the assay with NCI-H460 lung is 3.86 µM; in the assay with UACC-257 melanoma, 19.5 µM; in the assay on HCT-116 colon it was 5.29 µM; in the assay on CAKI-1 renal, over 21.6 µM; with NCI-H23 lung, 12.9 µM; in the assay with SK-MEL-5 melanoma, 3.66 µM. The TGI was 4.75 µM in the assay on MCF7 breast, 18.8 µM in the assay with MOLT-4 leukemia, 4.62 µM with SK-OV-3 ovarian and 5.68 µM in the assay on U251 CNS.
On to `CC/C(=C(\CC)c1ccc(OCCN(CC)CC)cc1)c1ccc(OCCN(CC)CC)cc1`, for which the GI50 with NCI-H460 lung is 3.86 µM; with UACC-257 melanoma, 1.23 µM; in the assay on HCT-116 colon, 1.03 µM; in the assay on CAKI-1 renal it was 3.17 µM; in the assay with NCI-H23 lung, 5.77 µM; in the assay with SK-MEL-5 melanoma it was 1.48 µM. The GI50 with MCF7 breast is 2.81 µM; in the assay with MOLT-4 leukemia, 3.62 µM; with SK-OV-3 ovarian, 3.48 µM; in the assay on U251 CNS, 1.87 µM. Moreover, the TGI turned out to be 15.3 µM with NCI-H460 lung; 2.82 µM in the assay on UACC-257 melanoma; 6.25 µM with HCT-116 colon; 15.7 µM in the assay on CAKI-1 renal; 21.8 µM in the assay on NCI-H23 lung; 2.86 µM with SK-MEL-5 melanoma. In addition, the TGI in the assay with MCF7 breast is 7.99 µM; in the assay on MOLT-4 leukemia it was 18.2 µM; in the assay with SK-OV-3 ovarian it was 12 µM; with U251 CNS, 8.99 µM.
As to `ON(CCc1ccccn1)Cc1ccccc1`, the TGI in the assay with NCI-H460 lung, in the assay on UACC-257 melanoma, with HCT-116 colon, with CAKI-1 renal, in the assay on NCI-H23 lung and in the assay on SK-MEL-5 melanoma was over 100 µM each time. Besides, the TGI in the assay with MCF7 breast, with MOLT-4 leukemia, in the assay on SK-OV-3 ovarian and with U251 CNS was over 100 µM in each case.
